Read-outs that look alike come from different tables or passages of the source.
Assays:
TPO (CHO-TPO) = test system: TPO (CHO-TPO); set-up: method as in Dong et al. (2020); details: ref Dong et al. (2020); read-out: AUR assay IC50, CHO-TPO; cited from earlier work
[1] = biological target: T1, peroxidase activity (human TPO) in HEK-TPOA7 cell lysate (Homo sapiens, UniProt P07202); assay: TPO luminol (Lumi) assay, HEK-TPOA7 cell lysate; type: biochemical
T1 construct: We have transfected the full length of TPO, which is 933 amino acids; expressed in transfected cells; host or cells: HEK293T (clone HEK-TPOA7), lentiviral transduction, CMV promoter
T1 sequence (P07202 19-933): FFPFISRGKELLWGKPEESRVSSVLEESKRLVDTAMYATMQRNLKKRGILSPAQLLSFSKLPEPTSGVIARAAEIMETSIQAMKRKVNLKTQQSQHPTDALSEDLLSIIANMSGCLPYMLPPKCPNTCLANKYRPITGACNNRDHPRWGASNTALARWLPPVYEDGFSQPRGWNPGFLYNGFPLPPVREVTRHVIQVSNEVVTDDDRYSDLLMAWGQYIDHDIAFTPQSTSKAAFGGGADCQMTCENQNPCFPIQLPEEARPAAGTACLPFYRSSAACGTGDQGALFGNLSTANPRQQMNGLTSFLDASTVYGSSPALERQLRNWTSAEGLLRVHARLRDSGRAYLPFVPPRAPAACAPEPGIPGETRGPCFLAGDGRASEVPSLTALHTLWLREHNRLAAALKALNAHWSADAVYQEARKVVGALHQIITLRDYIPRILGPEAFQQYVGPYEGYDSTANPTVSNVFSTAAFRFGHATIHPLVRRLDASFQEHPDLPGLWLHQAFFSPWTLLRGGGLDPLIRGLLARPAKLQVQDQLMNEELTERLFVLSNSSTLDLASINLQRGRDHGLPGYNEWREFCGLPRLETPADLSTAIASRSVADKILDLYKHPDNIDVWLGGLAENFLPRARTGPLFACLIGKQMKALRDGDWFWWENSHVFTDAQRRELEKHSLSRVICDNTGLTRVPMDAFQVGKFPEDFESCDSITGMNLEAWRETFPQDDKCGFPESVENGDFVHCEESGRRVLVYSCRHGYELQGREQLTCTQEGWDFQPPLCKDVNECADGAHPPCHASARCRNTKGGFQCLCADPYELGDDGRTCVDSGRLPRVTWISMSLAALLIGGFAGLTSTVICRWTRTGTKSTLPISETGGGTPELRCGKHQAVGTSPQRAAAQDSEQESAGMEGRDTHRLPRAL
Source text: (§1) A human TPO (hTPO) sequence was obtained from NCBI (NM_000547.5) and it was used for the production of lentiviral vector by VectorBuilder (Malvern, USA) containing the gene of interest under the transcriptional control of CMV promotor and EGFP gene linked with puromycin resistance gene under control of EFS promotor (pLV[Exp]-CMV > {NM_000547_5}-EFS > EGFP:T2A:Puro). The purified vector was used to produce lentiviral particles in Lenti-X cell line (TakaraBio Inc., Göteborg, Sweden). […] The medium was replaced 3 h after exposure. The conditioned lentiviral medium was harvested 48 and 72 h later, frozen and stored at − 80 °C. HEK293T cells were exposed to the conditioned lentiviral medium supplemented with Polybrene (10 µg/mL, Merck, Prague, Czech Republic). After 24 h, the medium was replaced with fresh medium with puromycin (Invivogen, Toulouse, France) as a selection factor. After the puromycin treatment, cells were sorted on a FACS sorter FACSAria Fusion (BD Biosciences, Prague, Czech Republic) to obtain GFP-expressing cell clones that were further characterized.

TPO (LentiX-TPO) = test system: TPO (LentiX-TPO); set-up: method as in Dong et al. (2020); details: ref Dong et al. (2020); read-out: AUR assay IC50, LentiX-TPO; cited from earlier work
[2] = test system: peroxidase activity (TPO) in Nthy-ori 3-1 cell lysate
Method: (§2) Briefly, the cells were washed with phosphate-buffered saline (PBS), scraped, resuspended in PBS, and centrifuged for 5 min at 150 rcf. The supernatant was discarded, the pellet was lysed with 0.1% m/v sodium deoxycholate (DC, in PBS) and incubated on ice for 20 min. Lysed cells were centrifuged for 5 min at 12,000 rcf to extract the soluble protein fraction. The supernatant protein concentration was measured using the Bio-Rad DC-protein assay following the manufacturer’s protocol. The cell lysates were kept at − 80 °C for longer-term storage.
(§3) It was performed in the white 96-well plates with total volume of reaction mixture 200 μL per well containing 100 μL cell lysate with protein content of 0.12 mg/mL (final 0.06 mg/mL), 100 μl GNE solution [1 M glycine–NaOH (pH 9.0), 1 mM EDTA] with the test chemical in MeOH (1% MeOH final concentration). The plate was incubated for 30 min with gentle shaking at 37 °C.
(§4) For the data analysis, GraphPad Prism™ (GraphPad Software, San Diego, USA) was used for curve-fitting and IC50 or IC20 calculation. The signal (RLUs or fluorescence intensity) from the wells-containing cell lysate and chemical was background corrected (average RLUs or fluorescence intensity of lysate-free wells), then normalized to the solvent control (100% activity). Fold change of signal intensity was calculated by dividing the signal from cell lysate-containing wells by the signal from the background (average of cell lysate-free wells).

[3] = biological target: T2, human TPO (HEK-TPOA7 cell lysate) (Homo sapiens, UniProt P07202); assay: AUR-TPO assay, HEK-TPOA7 cell lysate; type: biochemical
T2 construct: We have transfected the full length of TPO, which is 933 amino acids; expressed in transfected cells; host or cells: HEK293T (clone HEK-TPOA7), lentiviral transduction, CMV promoter
T2 sequence (P07202 19-933): T1 sequence (P07202 19-933)
Source text: as §1
Lower final volume and concentration of H2O2 were used. […] Nonspecific influence of the chemicals themselves on the fluorescence signal was assessed by measuring the fluorescence signal after co-incubating the chemicals (30 min at 37 °C) with 0.3 µM Resorufin and 40 µM H2O2 with the same excitation/emission spectra as with the AUR.
Test of the effect of H2O2 concentration on the TPO activity measurement in the AUR assay: To assess the impact of H2O2 level on the AUR assay, a subset of chemicals (Table S6) was subjected to analysis at two H2O2 concentrations, 40 µM and 300 µM, to evaluate any variance in response.

[4] = test system: peroxidase activity (TPO) in FRTL-5 cell lysate; assay: TPO luminol (Lumi) assay, FRTL-5 cell lysate
Method: The FRTL-5 (RRID:CVCL_0265), a spontaneously immortalized rat thyroid follicular cell line obtained from Sigma-Aldrich, was cultured in Coon F12 medium (Sigma-Aldrich) supplemented with L-Glutamine, hydrocortisone, somatostatin, TSH and 10% FBS.
(§5) HEPES solution (Sigma-Aldrich) was added to balance the pH.
as §2, §3
For the data analysis, GraphPad Prism™ (GraphPad Software, San Diego, USA) was used for curve-fitting and IC50 or IC20 calculation. The signal (RLUs or fluorescence intensity) from the wells-containing cell lysate and chemical was background corrected (average RLUs or fluorescence intensity of lysate-free wells), then normalized to the solvent control (100% activity).

[5] = test system: peroxidase activity in HEK293T cell lysate (no TPO expression); assay: TPO luminol (Lumi) assay, HEK293T cell lysate
Method: The HEK293T (RRID:CVCL_0063), a human embryonal kidney SV40 transformed immortalized cell line obtained from ATCC, as well as the derived TPO-transfected HEK293T cell line, were cultured in DMEM High Glucose media (Biosera, BioTech) supplemented with 10% FBS.
as §5, §2, §3, §4

[6] = test system: TPO (rat thyroid microsomes); set-up: method as in Friedman et al. 2016; details: microsomes from 120 pooled rat thyroids; ref Friedman et al. 2016; cited from earlier work
[7] = test system: peroxidase activity (TPO) in Nthy-ori 3-1 cell lysate; set-up: method as in Jomaa et al. (2015); details: ref Jomaa et al. (2015); read-out: Lumi assay IC50, Nthy-ori 3-1; cited from earlier work
TPO (Nthy-ori 3-1) = test system: TPO (Nthy-ori 3-1); set-up: method as in Jomaa et al. (2015); details: ref Jomaa et al. (2015); read-out: AUR assay IC50, Nthy-ori 3-1; cited from earlier work
[8] = test system: peroxidase activity (TPO) in Nthy-ori 3-1 cell lysate; assay: TPO luminol (Lumi) assay, Nthy-ori 3-1 cell lysate; details: read-out: Lumi assay IC50, Nthy-ori 3-1
Method: as §2, §3, §4

[9] = Solubility of triclosan (PubChem); type: physicochemical; details: 20 °C; equivalent of 10 mg/L; ref PubChem
[10] = current study, n ≥ 3, hematin pre-treated cells, NA = not active up to the highest tested concentration, read-out: Lumi assay IC50, HEK-TPOA7
[11] = current study, n ≥ 3, pH 7.2, 40 µM H2O2, NA = not active up to the highest tested concentration, read-out: AUR assay IC50, HEK-TPOA7
[12] = lysate of cells with hematin pre-treatment, unit inferred, read-out: IC50, HEK-TPOA7, AUR assay, hematin +
[13] = lysate of cells without hematin pre-treatment, unit inferred, read-out: IC50, HEK-TPOA7, AUR assay, hematin -
[14] = read-out: IC50, AUR assay, H2O2 300uM, HEK-TPOA7 lyzate, n=2, unit not given in Table S6
[15] = read-out: IC50, FRTL-5, Lumi assay, hematin +, lysate of cells with hematin pre-treatment, unit inferred
[16] = read-out: Lumi assay IC50, FRTL-5, current study, n ≥ 3, NA = not active up to the highest tested concentration
[17] = lysate of cells without hematin pre-treatment, unit inferred, read-out: IC50, HEK-TPOA7, Lumi assay, hematin -
[18] = read-out: Lumi assay IC50, HEK293T, current study, PTU n = 2
[19] = IC50, AUR assay, H2O2 300uM, HEK-TPOA7 lyzate, n=2, unit not given in Table S6
[20] = IC20 shown where IC50 was not reached, read-out: AUR assay IC20, HEK-TPOA7

Compound	IC50 (TPO (CHO-TPO))	IC50 [1, 10]	IC50 (TPO (LentiX-TPO))	IC50 [2]	IC50 [3, 11]	IC50 [3, 12]	IC50 [3, 13]	IC50 [4, 15]	IC50 [4, 16]	IC50 [5, 18]	IC50 [3, 19]	other results
O=C(c1ccc(O)cc1O)c1ccc(O)cc1O [BP2, 2,2′-4,4′-tetrahydroxy benzophenone]	0.2 µM	20.2 µM	0.24 µM	38.5 µM	0.56 µM	0.56 µM	0.48 µM	31.4 µM	29.6 µM	–	–	IC50 [3, 14]: 0.64 µM
CC(C)(c1ccc(O)cc1)c1ccc(O)cc1 [BPA, Bisphenol A]	–	130 µM	–	120 µM	–	10.6 µM	8.29 µM	166 µM	143 µM	122 µM	10.9 µM	IC50 [1, 17]: 107 µM
S=C1NCCN1 [ETU, Ethylene thiourea]	–	–	–	–	–	–	–	–	–	–	–	TPO inhibition in rat thyroid-based AUR assay (ToxCast) [6]: quantifiable IC50
Cn1cc[nH]c1=S [MMI, Methimazole, reference compound]	0.49 µM	3.24 µM	0.23 µM	3.91 µM	1.5 µM	1.5 µM	1.12 µM	3.59 µM	3.69 µM	–	1.33 µM	IC50 [7]: 4 µM; IC50 (TPO (Nthy-ori 3-1)): 2.7 µM
O=C(O)C(F)(F)C(F)(F)C(F)(F)C(F)(F)C(F)(F)C(F)(F)C(F)(F)F [PFOA, Perfluorooctanoic acid]	–	–	–	–	–	–	–	–	–	–	–	IC20 ([1]; IC20 shown where IC50 was not reached): 110 µM; IC20 [3, 20]: 5.15 µM
CCCc1cc(=O)[nH]c(=S)[nH]1 [PTU, 6-propylthiouracil, reference compound]	4.9 µM	–	10.4 µM	11.7 µM	–	–	–	12.5 µM	13.2 µM	18.9 µM	–	IC50 [7]: 16.4 µM; IC50 (TPO (Nthy-ori 3-1)): 35.2 µM
Oc1cccc(O)c1 [RSC, Resorcinol]	0.05 µM	17.9 µM	0.06 µM	13.8 µM	0.358 µM	0.36 µM	0.36 µM	13.9 µM	15.7 µM	–	0.61 µM	IC50 ([3]; IC50, AUR assay, H2O2 40uM, HEK-TPOA7 lyzate, n=2, unit not given in Table S6): 0.36 µM
Cc1cc(NS(=O)(=O)c2ccc(N)cc2)no1 [SMX, Sulfamethoxazol, reference compound]	–	–	–	–	–	–	–	–	–	–	–	IC20 ([3]; HEK-TPOA7 lyzate, n=2, starred chemicals, unit not given in Table S6, read-out: IC20, AUR assay, H2O2 300uM): 140 µM; IC20 [3, 20]: 101 µM
CC(C)(c1cc(Br)c(O)c(Br)c1)c1cc(Br)c(O)c(Br)c1 [TBBPA, Tetrabromobisphenol A]	–	90.9 µM	–	–	8.65 µM	8.65 µM	8.2 µM	190 µM	130 µM	64.4 µM	–	IC50 [1, 17]: 107 µM; IC50 ([5]; read-out: IC50, HEK293T, Lumi assay, hematin +, lysate of cells with hematin pre-treatment, unit inferred): 87.1 µM; IC50 [3, 14]: 6.5 µM; IC50 [8]: 77.2 µM
Oc1cc(Cl)ccc1Oc1ccc(Cl)cc1Cl [TCS, Triclosan]	> 253 µM	38.4 µM	> 253 µM	–	–	197 µM	–	46.2 µM	67.9 µM	47.8 µM	165 µM	solubility (equivalent) [9]: 34.5 µM; IC50 ([3]; HEK-TPOA7, pH 8.8 (SD = 14), read-out: AUR assay IC50 at higher pH): 72.7 µM; IC50 [8]: 51 µM
